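Values below derive from 48-hour exposures of cells grown in 96-well plates, with endpoints linearly interpolated between the two concentrations bracketing the appropriate inhibition level. Here, GI50 denotes the concentration required for 50% inhibition of growth. TGI: concentration producing complete growth inhibition.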
Experiments:
Test in all cases: growth of human tumour cells (NCI), 48 h
SNB-75 CNS = tested on: SNB-75 CNS
M14 melanoma = tested on: M14 melanoma
CAKI-1 renal = tested on: CAKI-1 renal
NCI-H226 lung = tested on: NCI-H226 lung
UACC-62 melanoma = tested on: UACC-62 melanoma
EKVX NSCLC = tested on: EKVX NSCLC
OVCAR-8 ovarian = tested on: OVCAR-8 ovarian
U251 CNS = tested on: U251 CNS
KM12 colon = tested on: KM12 colon
T-47D breast = tested on: T-47D breast

SMILES | TGI (SNB-75 CNS) [µM] | TGI (M14 melanoma) [µM] | TGI (CAKI-1 renal) [µM] | TGI (NCI-H226 lung) [µM] | TGI (UACC-62 melanoma) [µM] | TGI (EKVX NSCLC) [µM] | TGI (OVCAR-8 ovarian) [µM] | TGI (U251 CNS) [µM] | TGI (KM12 colon) [µM] | GI50 (M14 melanoma) [µM] | GI50 (CAKI-1 renal) [µM] | GI50 (NCI-H226 lung) [µM] | GI50 (UACC-62 melanoma) [µM] | GI50 (EKVX NSCLC) [µM] | GI50 (OVCAR-8 ovarian) [µM] | GI50 (U251 CNS) [µM] | GI50 (KM12 colon) [µM] | GI50 (SNB-75 CNS) [µM] | GI50 (T-47D breast) [µM] | TGI (T-47D breast) [µM]
Cc1cc(=O)n2c3c(c4c(cc13)c(CO)cc(=O)n4C)OC2 | 70.5 | > 100 | > 100 | 25.8 | 25.9 | > 100 | 39.1 | > 100 | > 100 |  |  |  |  |  |  |  |  |  |  | 
N.N.O=P([O-])([O-])CN(CCN(CP(=O)([O-])[O-])CP(=O)([O-])[O-])CP(=O)([O-])[O-].[Pt+2] |  | > 100 | > 100 | > 100 | > 100 | > 100 | > 100 | > 100 | > 100 | > 100 | > 100 | > 100 | > 100 | > 100 | > 100 | > 100 | > 100 |  |  | 
O=C(/C=C/c1ccccc1Cl)c1cccc2ccccc12 | 18.3 | 30.5 | 25.4 | > 100 | 28.6 | 25.4 | 4.19 | 8.45 | 16.8 |  |  |  |  |  |  |  |  |  |  | 
O=[N+]([O-])c1ccc(Sc2nc(Cl)nc(NC3CCCC3)n2)cc1 | > 10 | > 10 | > 10 | > 10 | > 10 |  | > 10 | > 10 | > 10 | > 10 | 3.9 | > 10 | > 10 |  | > 10 | > 10 | > 10 | > 10 | > 10 | > 10
CCOC(=O)C1=C(C)N(Cc2ccccc2)C(=O)C1CC#N (stereo not drawn) | > 100 | > 100 | > 100 |  | > 100 | > 100 | > 100 | > 100 | > 100 |  |  |  |  |  |  |  |  |  |  | 
CCN(CC)CCOc1ccc(/C=C2\C[C@H]3[C@H]4CC=C5C[C@@H](O)CC[C@]5(C)[C@H]4CC[C@]3(C)[C@H]2O)cc1OC |  | 16.8 | 15.9 | 16 | 14.5 |  | 26.5 | 17.3 | 17 | 6.12 | 7.14 | 7.71 | 7.53 |  | 12.9 | 9.53 | 8.1 |  | 24.5 | > 50
CC(C)(CCN=C(N)Nc1ccccn1)c1ccc(C(F)(F)F)cc1 | 33.8 | 29.6 |  | 31.7 | 29.8 | 30.5 | 33.2 | 30.4 | 30.9 | 14 |  | 13.6 | 15.7 | 11.2 | 17.7 | 16.4 | 15.8 | 12.9 | 11.1 | 28.5
C[C@]12CCC[C@H](O)[C@H]1C[C@H](CO)CC2 | > 100 | > 100 | > 100 | > 100 | > 100 |  | > 100 | > 100 | > 100 |  |  |  |  |  |  |  |  |  |  | 
O=C(NNc1ccc(F)cc1)C1CCC(CNS(=O)(=O)c2ccc(Cl)c(Cl)c2)CC1 (stereo not drawn) |  | > 50 | 28.1 | > 50 | 23.4 | > 50 | 35.6 | > 50 | 42.6 | 7.49 | 2.87 | 15.6 | 1.98 | 7.98 | 8.79 | 10.3 | 1.38 |  |  | 
COC(=O)C[CH2][Ge]([CH3])([CH3])[S]c1ccccc1 | > 100 | > 100 | 79.1 | > 100 | 60.9 | 86.4 | 83.8 | 44.1 | > 100 | 36.5 | 40.2 | 27.4 | 21.9 | 28.2 | 25.2 | 17.7 | 36 | 31.4 |  | 
CCOC(=O)c1ccc2c(c1)nc(/C=C/c1ccc(Cl)cc1)n2-c1cc(C(C)(C)C)[nH]n1 | 5.51 | > 100 | 61.2 | 27.2 | 4.79 |  | 33.9 | 13.2 | > 100 | 20.9 | 5.04 | 3.63 | 1.47 |  | 5.31 | 3.28 | 12.9 | 1.9 | 5.82 | 52.4
NC1=NN(c2ccccc2)C(=O)C1/C(=N\NC(=O)c1cc2ccccc2cc1O)C(=O)Nc1cccc(C(F)(F)F)c1 (stereo not drawn) | > 100 | > 100 |  |  | > 100 | > 100 | > 100 | > 100 | > 100 |  |  |  |  |  |  |  |  |  |  | 
COc1ccc2c(c1)[n+]([O-])c(-c1ccc(Br)cc1)c(N)[n+]2[O-] | > 100 |  | > 100 | > 100 |  | > 100 | > 100 | > 100 | > 100 |  |  |  |  |  |  |  |  |  |  | 
CC1(c2cccc(N)c2)C2C(=O)NC(=O)C1C(=O)NC2=O (stereo not drawn) | 73.2 | > 100 | > 100 | 83.8 | > 100 | > 100 | > 100 |  | > 100 |  |  |  |  |  |  |  |  |  |  | 
CCN(Cc1ccccc1Cl)c1ccc(CO)c(Cl)c1 | 21.8 | 31.7 | 21 | 0.122 | 1.63 |  | 27.1 | 15 | 28.7 | 15.3 | 5.82 | 0.0295 | 0.152 |  | 12.8 | 0.943 | 13.4 | 7.13 | 0.06 | 0.522
N#Cc1cc([N+](=O)[O-])ccc1NC(=O)C(F)(F)F | > 95.9 | > 100 | > 100 | > 100 | > 100 | > 100 | > 100 | > 100 | > 100 |  |  |  |  |  |  |  |  |  |  | 

Source: PubChem BioAssay (NCI)
